Some results are limits rather than exact numbers.

As usually defined, the IC50 is the concentration at which inhibition is half-maximal. A low value points to greater potency in that assay.

One test addresses PIK3CA (human) (UniProt P42336). Kind of test: Assessment of PIK3CA Kinase Activity.
The next test concerns the target PIK3CG (human) (UniProt P48736). Kind of test: Assessment of PIK3CG Kinase Activity.

Chain of PIK3CG (human) (P48736 whole entry, looked up): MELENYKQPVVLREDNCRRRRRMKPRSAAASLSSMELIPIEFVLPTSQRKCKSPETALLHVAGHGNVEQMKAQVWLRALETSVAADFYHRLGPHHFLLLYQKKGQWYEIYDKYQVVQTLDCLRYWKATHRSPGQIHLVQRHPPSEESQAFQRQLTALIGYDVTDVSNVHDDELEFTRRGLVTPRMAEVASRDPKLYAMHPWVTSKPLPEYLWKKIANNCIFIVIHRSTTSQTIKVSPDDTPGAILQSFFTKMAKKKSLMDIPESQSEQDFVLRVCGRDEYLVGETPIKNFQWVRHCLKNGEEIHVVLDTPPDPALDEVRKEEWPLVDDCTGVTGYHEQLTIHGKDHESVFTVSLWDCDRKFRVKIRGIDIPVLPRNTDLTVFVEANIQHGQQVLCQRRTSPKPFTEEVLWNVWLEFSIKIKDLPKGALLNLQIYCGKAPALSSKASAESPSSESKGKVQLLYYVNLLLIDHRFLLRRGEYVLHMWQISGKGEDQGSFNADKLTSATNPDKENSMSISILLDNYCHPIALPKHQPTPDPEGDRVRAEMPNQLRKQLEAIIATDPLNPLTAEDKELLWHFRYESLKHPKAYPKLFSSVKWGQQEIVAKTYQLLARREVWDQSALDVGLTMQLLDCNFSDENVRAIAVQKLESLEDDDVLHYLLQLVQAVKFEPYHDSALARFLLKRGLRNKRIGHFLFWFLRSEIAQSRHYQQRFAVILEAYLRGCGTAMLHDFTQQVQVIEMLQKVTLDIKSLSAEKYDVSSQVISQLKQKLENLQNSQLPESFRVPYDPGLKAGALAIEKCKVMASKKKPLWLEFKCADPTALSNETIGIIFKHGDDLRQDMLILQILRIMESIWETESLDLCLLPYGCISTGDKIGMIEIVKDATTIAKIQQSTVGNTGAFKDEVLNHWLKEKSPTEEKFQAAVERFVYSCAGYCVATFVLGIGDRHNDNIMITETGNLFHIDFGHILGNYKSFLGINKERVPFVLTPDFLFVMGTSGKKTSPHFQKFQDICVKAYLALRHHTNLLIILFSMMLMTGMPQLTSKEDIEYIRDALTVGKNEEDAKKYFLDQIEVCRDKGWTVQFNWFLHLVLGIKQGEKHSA
Chain of PIK3CA (human) (P42336 whole entry, looked up): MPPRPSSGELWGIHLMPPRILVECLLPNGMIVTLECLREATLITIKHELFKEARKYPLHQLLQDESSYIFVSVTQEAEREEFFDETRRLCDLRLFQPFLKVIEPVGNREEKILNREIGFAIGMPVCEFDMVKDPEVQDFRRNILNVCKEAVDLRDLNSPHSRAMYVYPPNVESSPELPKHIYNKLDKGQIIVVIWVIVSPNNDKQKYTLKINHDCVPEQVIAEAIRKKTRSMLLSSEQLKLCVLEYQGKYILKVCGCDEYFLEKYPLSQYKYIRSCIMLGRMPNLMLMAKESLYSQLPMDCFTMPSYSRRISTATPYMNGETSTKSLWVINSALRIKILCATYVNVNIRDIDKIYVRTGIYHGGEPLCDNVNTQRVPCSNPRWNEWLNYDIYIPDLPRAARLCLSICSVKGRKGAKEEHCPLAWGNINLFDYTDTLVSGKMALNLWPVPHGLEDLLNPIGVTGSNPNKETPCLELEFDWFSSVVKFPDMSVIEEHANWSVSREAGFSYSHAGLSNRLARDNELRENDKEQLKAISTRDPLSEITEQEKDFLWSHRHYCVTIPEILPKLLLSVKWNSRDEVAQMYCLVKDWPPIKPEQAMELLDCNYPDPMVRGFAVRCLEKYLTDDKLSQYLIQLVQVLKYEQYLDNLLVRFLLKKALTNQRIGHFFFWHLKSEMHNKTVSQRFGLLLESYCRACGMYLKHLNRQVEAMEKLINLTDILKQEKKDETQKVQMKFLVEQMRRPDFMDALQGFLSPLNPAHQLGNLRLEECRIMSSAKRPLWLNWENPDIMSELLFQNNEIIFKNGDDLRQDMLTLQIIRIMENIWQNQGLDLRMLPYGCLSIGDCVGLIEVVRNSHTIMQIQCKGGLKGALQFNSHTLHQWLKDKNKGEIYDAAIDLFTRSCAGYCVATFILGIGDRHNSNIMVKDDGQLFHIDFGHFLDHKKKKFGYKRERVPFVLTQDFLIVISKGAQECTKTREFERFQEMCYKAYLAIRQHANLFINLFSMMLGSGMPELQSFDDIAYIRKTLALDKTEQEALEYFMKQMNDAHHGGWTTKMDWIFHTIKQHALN

Consider `CN(C)C1CCN(C(=O)c2ccc(NC(=O)Nc3ccc(-c4nc5c(c(N6C7CCC6COC7)n4)CNC5)cc3)cc2)CC1`, for which the IC50 against PIK3CA (human) was 301 nM; at PIK3CG (human) it was above 10000 nM.
With `CNC(=O)Nc1ccc(-c2nc3c(c(N4CC5CCC(C4)O5)n2)CCN(S(=O)(=O)c2ccc(C#N)cc2)C3)cc1`, the IC50 against PIK3CG (human) stood at 4000 nM.
The same measure, in the same setting: for `CNC(=O)Nc1ccc(-c2nc3c(c(N4CC5CCC(C4)O5)n2)CCN(C(=O)NC(C)(C)C)C3)cc1` the value was 375 nM.
Regarding `CS(=O)(=O)N1Cc2nc(-c3ccc(NC(=O)Nc4cccnc4)cc3)nc(N3CCOCC3)c2C1`, the IC50 is 45 nM on PIK3CA (human) and 782 nM at PIK3CG (human).
As to `CCCCC(=O)N1CCc2c(nc(-c3ccc(NC(=O)NC)cc3)nc2N2CC3CCC(C2)O3)C1`, on PIK3CG (human), the IC50 came out at 545 nM. This lies in the sub-micromolar range.
Compound `CCN1CCc2c(nc(-c3ccc(NC(=O)Nc4ccc(CN5CCN(C)CC5)cc4)cc3)nc2N2C3CCC2COC3)C1` returned an IC50 at PIK3CA (human) of 1280 nM.
Compound `CCCCCCC(=O)N1CCc2c(nc(-c3ccc(NC(=O)NC)cc3)nc2N2CC3CCC(C2)O3)C1` came in with an IC50 on PIK3CG (human) of 960 nM.
With `CNC(=O)Nc1ccc(-c2nc3c(c(N4C5CCC4COC5)n2)CCNC3)cc1`, the values for the IC50 on PIK3CA (human) and against PIK3CG (human) were 3760 nM and above 10000 nM, respectively.
`CCN1CCc2c(nc(-c3ccc(NC(=O)NCCF)cc3)nc2N2C3CCC2COC3)C1` displayed an IC50 on PIK3CA (human) of 5780 nM. This lies in the single-digit micromolar range.
With `CCN1CCc2c(nc(-c3ccc(NC(=O)Nc4ccc(C(=O)N5CCN(C)CC5)cc4)cc3)nc2N2C3CCC2COC3)C1`, on PIK3CA (human), the IC50 is 211 nM.
On PIK3CA (human), `CCN1CCc2c(nc(-c3ccc(NC(=O)Nc4ccc(N5CCN(C)CC5)cc4)cc3)nc2N2C3CCC2COC3)C1` came in with an IC50 of 1920 nM.
`CNC(=O)Nc1ccc(-c2nc3c(c(N4CC5CCC(C4)O5)n2)CCN(C(=O)c2ccc(C(C)(C)C)cc2)C3)cc1` displayed an IC50 against PIK3CG (human) of 3350 nM.
Take `O=C(Nc1ccncc1)Nc1ccc(-c2nc3c(c(N4C5CCC4COC5)n2)CC[N+](CCF)(CCF)C3)cc1`: the IC50 at PIK3CA (human) was 1870 nM. That is a single-digit micromolar value.
The same measure, in the same setting: for `CCN1CCc2c(nc(-c3ccc(NC(=O)Nc4ccc(C(N)=O)cc4)cc3)nc2N2C3CCC2COC3)C1` the value was 1010 nM.
Turning to `CCCCC(CC)C(=O)N1CCc2c(nc(-c3ccc(NC(=O)NC)cc3)nc2N2CC3CCC(C2)O3)C1` (centres undefined), on PIK3CG (human), the half-maximal inhibitory concentration (IC50) turned out to be 270 nM.
The compound `CCN1CCc2c(nc(-c3ccc(NC(=O)NC4CC4)cc3)nc2N2C3CCC2COC3)C1` displayed an IC50 against PIK3CA (human) of 4850 nM.
In turn, `CNC(=O)Nc1ccc(-c2nc3c(c(N4CC5CCC(C4)O5)n2)CCN(S(=O)(=O)c2ccccc2)C3)cc1` showed an IC50 against PIK3CG (human) of 205 nM.
Still for that read-out and setting: for `C=CCNC(=O)N1CCc2c(nc(-c3ccc(NC(=O)NC)cc3)nc2N2CC3CCC(C2)O3)C1` the value was 375 nM; for `CNC(=O)Nc1ccc(-c2nc3c(c(N4CC5CCC(C4)O5)n2)CCN(C(=O)c2ccccc2OC)C3)cc1`, 900 nM.
The same measure, in the same setting: for `CNC(=O)Nc1ccc(-c2nc3c(c(N4CC5CCC(C4)O5)n2)CCN(C(=O)c2c(F)cccc2F)C3)cc1` the value was 300 nM.
`CCN1CCc2c(nc(-c3ccc(NC(=O)Nc4ccc(C(=O)OC)cc4)cc3)nc2N2C3CCC2COC3)C1` had an IC50 at PIK3CA (human) of 1280 nM.
Compound `CCN1CCc2c(nc(-c3ccc(NC(=O)Nc4ccc(CN5CCCC5)cc4)cc3)nc2N2C3CCC2COC3)C1` showed a 50% inhibitory concentration (IC50) at PIK3CA (human) of 737 nM.
Consider `CNC(=O)Nc1ccc(-c2nc3c(c(N4CC5CCC(C4)O5)n2)CCN(C(=O)OCC(C)C)C3)cc1`, for which the IC50 against PIK3CG (human) amounted to 350 nM.
The same measure, in the same setting: for `CCCCNC(=O)N1CCc2c(nc(-c3ccc(NC(=O)NC)cc3)nc2N2CC3CCC(C2)O3)C1` the value was 375 nM.
At PIK3CA (human), `CCN1CCc2c(nc(-c3ccc(NC(=O)Nc4ccc(C(=O)NC)cc4)cc3)nc2N2C3CCC2COC3)C1` registered an IC50 of 861 nM.
In turn, `CCN1CCc2c(nc(-c3ccc(NC(=O)Nc4ccc(C#N)cc4)cc3)nc2N2C3CCC2COC3)C1` had an IC50 against PIK3CA (human) of 1650 nM.
Take `CNC(=O)Nc1ccc(-c2nc3c(c(N4CC5CCC(C4)O5)n2)CCN(C(=O)c2ccccc2F)C3)cc1`: the IC50 at PIK3CG (human) was 360 nM.
On to `CC(C)(C)OC(=O)N1CCc2c(nc(-c3ccc(NC(=O)Nc4ccncc4)cc3)nc2N2CC3CCC(C2)O3)C1`, for which the IC50 on PIK3CA (human) came to 459 nM.
On the same count and under the same terms, for `CCN1CCc2c(nc(-c3ccc(NC(=O)Nc4ccc(C(=O)NC(C)C)cc4)cc3)nc2N2C3CCC2COC3)C1` the value was 528 nM; for `CCN1CCc2c(nc(-c3ccc(NC(=O)Nc4ccncc4)cc3)nc2N2CC3CCC(C2)O3)C1`, 153 nM; for `CCN1CCc2c(nc(-c3ccc(NC(=O)Nc4ccc(CN(C)C)cc4)cc3)nc2N2C3CCC2COC3)C1`, 884 nM.
On PIK3CG (human), `CNC(=O)Nc1ccc(-c2nc3c(c(N4CC5CCC(C4)O5)n2)CCN(C(=O)CCC2CCCC2)C3)cc1` registered an IC50 of 1050 nM.
On the same count and under the same terms, for `CCCCOC(=O)N1CCc2c(nc(-c3ccc(NC(=O)NC)cc3)nc2N2CC3CCC(C2)O3)C1` the value was 375 nM.
The compound `CCN1CCc2c(nc(-c3ccc(NC(=O)Nc4ccc(N5CCC(N(C)C)CC5)cc4)cc3)nc2N2C3CCC2COC3)C1` had an IC50 against PIK3CA (human) of 1070 nM.
For the compound `CNC(=O)Nc1ccc(-c2nc3c(c(N4CC5CCC(C4)O5)n2)CCN(C(=O)COC)C3)cc1`, the half-inhibitory concentration (IC50) at PIK3CG (human) was 830 nM.
For `CCN1CCc2c(nc(-c3ccc(NC(=O)Nc4ccc(OCCN(C)C)cc4)cc3)nc2N2C3CCC2COC3)C1`, the IC50 against PIK3CA (human) was found to be 1220 nM.
The same measure, in the same setting: for `CCN1CCc2c(nc(-c3ccc(NC(=O)Nc4ccccc4)cc3)nc2N2C3CCC2COC3)C1` the value was 917 nM.
On PIK3CG (human), `CNC(=O)Nc1ccc(-c2nc3c(c(N4CC5CCC(C4)O5)n2)CCN(C(=O)C(C)(C)C)C3)cc1` gave an IC50 of 300 nM. This lies in the sub-micromolar range.
At PIK3CA (human), `O=C(Nc1ccncc1)Nc1ccc(-c2nc3c(c(N4C5CCC4COC5)n2)CCN(CC(F)(F)F)C3)cc1` had an IC50 of 1710 nM.
`CCCCCCNC(=O)N1CCc2c(nc(-c3ccc(NC(=O)NC)cc3)nc2N2CC3CCC(C2)O3)C1` gave an IC50 against PIK3CG (human) of 195 nM.
Turning to `COCCN1CCc2c(nc(-c3ccc(NC(=O)Nc4ccncc4)cc3)nc2N2CC3CCC(C2)O3)C1`, the IC50 at PIK3CA (human) was found to be 101 nM.

(Values after the Kinase Knowledgebase extract (Sharma et al. 2016).)
